Laboratory results: the NIST ThermoML archive (doi:10.1021/je0502546)
± gives the expanded uncertainty stated by the source.

How the values were obtained:
[1] = 101 kPa, Liquid; for viscosity: Capillary tube (Ostwald / Ubbelohde) method
[2] = refractive index (Na D-line) (dimensionless); conditions: 101.33 kPa, Liquid, Standard Abbe refractometry
[3] = xn = mol fraction of the nth substance listed; conditions: 101 kPa, Liquid; for viscosity: Capillary tube (Ostwald / Ubbelohde) method
[4] = refractive index (Na D-line) (dimensionless); xn = mol fraction of the nth substance listed; conditions: 101 kPa, Liquid, Standard Abbe refractometry

COc1ccccc1 [anisole]
Conditions	mass density, [1] [kg/m3]	refractive index, [2]	viscosity, [1] [mPa·s]
293.15 K	993.8 ± 0.44	1.5177 ± 0.0007	1.084 ± 0.01
303.15 K	984.37 ± 0.44	1.5124 ± 0.0007	0.931 ± 0.009

COc1ccccc1 [anisole] + c1ccccc1
Conditions	mass density, [3] [kg/m3]	refractive index, [4]	viscosity, [3] [mPa·s]
293.15 K, x1 = 0.0938	889.8 ± 0.31	1.5032 ± 0.0008	0.677 ± 0.006
293.15 K, x1 = 0.1955	903.56 ± 0.32	1.5053 ± 0.0008	0.711 ± 0.006
293.15 K, x1 = 0.3053	917.74 ± 0.33	1.5074 ± 0.0008	0.751 ± 0.007
293.15 K, x1 = 0.3994	929.35 ± 0.35	1.5091 ± 0.0008	0.788 ± 0.007
293.15 K, x1 = 0.5	941.27 ± 0.36	1.5108 ± 0.0008	0.829 ± 0.007
293.15 K, x1 = 0.6005	952.68 ± 0.38	1.5124 ± 0.0007	0.874 ± 0.008
293.15 K, x1 = 0.6996	963.47 ± 0.39	1.5139 ± 0.0007	0.921 ± 0.008
293.15 K, x1 = 0.8013	974.11 ± 0.41	1.5153 ± 0.0007	0.972 ± 0.009
293.15 K, x1 = 0.8978	983.8 ± 0.43	1.5166 ± 0.0007	1.025 ± 0.009
293.15 K, x1 = 1	993.8 ± 0.44	1.5177 ± 0.0007	1.084 ± 0.01
303.15 K, x1 = 0.0938	881.47 ± 0.31	1.4967 ± 0.0008	0.587 ± 0.005
303.15 K, x1 = 0.1955	895.16 ± 0.32	1.4989 ± 0.0008	0.616 ± 0.006
303.15 K, x1 = 0.3053	909.24 ± 0.33	1.5011 ± 0.0008	0.649 ± 0.006
303.15 K, x1 = 0.3994	920.76 ± 0.35	1.5028 ± 0.0008	0.679 ± 0.006
303.15 K, x1 = 0.5	932.57 ± 0.36	1.5046 ± 0.0008	0.714 ± 0.007
303.15 K, x1 = 0.6005	943.88 ± 0.37	1.5064 ± 0.0007	0.751 ± 0.007
303.15 K, x1 = 0.6996	954.56 ± 0.39	1.508 ± 0.0007	0.791 ± 0.007
303.15 K, x1 = 0.8013	965.08 ± 0.41	1.5096 ± 0.0007	0.836 ± 0.008
303.15 K, x1 = 0.8978	974.66 ± 0.42	1.511 ± 0.0007	0.88 ± 0.008
303.15 K, x1 = 1	984.37 ± 0.44	1.5124 ± 0.0007	0.931 ± 0.009

c1ccccc1 [benzene]
Conditions	mass density, [1] [kg/m3]	refractive index, [2]	viscosity, [1] [mPa·s]
293.15 K	877.43 ± 0.3	1.5011 ± 0.0008	0.647 ± 0.006
303.15 K	868.26 ± 0.3	1.4947 ± 0.0008	0.563 ± 0.005

c1ccccc1 [benzene] + COc1ccccc1
x2 = 0
Conditions	mass density, [3] [kg/m3]	refractive index, [4]	viscosity, [3] [mPa·s]
293.15 K	877.43 ± 0.3	1.5011 ± 0.0008	0.647 ± 0.006
303.15 K	868.26 ± 0.3	1.4947 ± 0.0008	0.563 ± 0.005

CCCCc1ccccc1 [butylbenzene]
Conditions	mass density, [1] [kg/m3]	refractive index, [2]	viscosity, [1] [mPa·s]
293.15 K	861.26 ± 0.39	1.4895 ± 0.0007	1.034 ± 0.009
303.15 K	852.23 ± 0.39	1.4845 ± 0.0007	0.893 ± 0.008

CCCCc1ccccc1 [butylbenzene] + COc1ccccc1
Conditions	mass density, [3] [kg/m3]	refractive index, [4]	viscosity, [3] [mPa·s]
293.15 K, x2 = 0	861.26 ± 0.39	1.4895 ± 0.0007	1.034 ± 0.009
293.15 K, x2 = 0.1238	873.01 ± 0.4	1.4923 ± 0.0007	1.005 ± 0.009
293.15 K, x2 = 0.225	884.01 ± 0.4	1.4948 ± 0.0007	0.985 ± 0.009
293.15 K, x2 = 0.3541	898.83 ± 0.4	1.498 ± 0.0007	0.971 ± 0.009
293.15 K, x2 = 0.48	914.4 ± 0.41	1.5014 ± 0.0007	0.965 ± 0.009
293.15 K, x2 = 0.581	927.77 ± 0.41	1.5042 ± 0.0007	0.97 ± 0.009
293.15 K, x2 = 0.67	940.23 ± 0.42	1.5068 ± 0.0007	0.983 ± 0.009
293.15 K, x2 = 0.7672	954.65 ± 0.43	1.5097 ± 0.0007	1.002 ± 0.009
293.15 K, x2 = 0.8483	967.5 ± 0.43	1.5123 ± 0.0007	1.027 ± 0.009
293.15 K, x2 = 0.9201	979.53 ± 0.44	1.5148 ± 0.0007	1.052 ± 0.009
303.15 K, x2 = 0	852.23 ± 0.39	1.4845 ± 0.0007	0.893 ± 0.008
303.15 K, x2 = 0.1238	865.04 ± 0.39	1.4872 ± 0.0007	0.872 ± 0.008
303.15 K, x2 = 0.225	875.92 ± 0.4	1.4896 ± 0.0007	0.855 ± 0.008
303.15 K, x2 = 0.3541	890.71 ± 0.4	1.4927 ± 0.0007	0.841 ± 0.008
303.15 K, x2 = 0.48	906.13 ± 0.41	1.4961 ± 0.0007	0.837 ± 0.008
303.15 K, x2 = 0.581	919.36 ± 0.41	1.4989 ± 0.0007	0.842 ± 0.008
303.15 K, x2 = 0.67	931.73 ± 0.42	1.5014 ± 0.0007	0.851 ± 0.008
303.15 K, x2 = 0.7672	946.15 ± 0.42	1.5043 ± 0.0007	0.867 ± 0.008
303.15 K, x2 = 0.8483	958.84 ± 0.43	1.5068 ± 0.0007	0.885 ± 0.008
303.15 K, x2 = 0.9201	970.6 ± 0.43	1.5093 ± 0.0007	0.905 ± 0.008

CCc1ccccc1 [ethylbenzene]
Conditions	mass density, [1] [kg/m3]	refractive index, [2]	viscosity, [1] [mPa·s]
293.15 K	866.95 ± 0.22	1.4957 ± 0.0007	0.669 ± 0.006
303.15 K	858.01 ± 0.22	1.4902 ± 0.0007	0.596 ± 0.005

CCc1ccccc1 [ethylbenzene] + COc1ccccc1
x2 = 0
Conditions	mass density, [3] [kg/m3]	refractive index, [4]	viscosity, [3] [mPa·s]
293.15 K	866.95 ± 0.22	1.4957 ± 0.0007	0.669 ± 0.006
303.15 K	858.01 ± 0.22	1.4902 ± 0.0007	0.596 ± 0.005

CCCc1ccccc1 [propylbenzene]
Conditions	mass density, [1] [kg/m3]	refractive index, [2]	viscosity, [1] [mPa·s]
293.15 K	863.13 ± 0.39	1.4916 ± 0.0007	0.855 ± 0.008
303.15 K	854.71 ± 0.39	1.4858 ± 0.0007	0.744 ± 0.007

CCCc1ccccc1 [propylbenzene] + COc1ccccc1
Conditions	mass density, [3] [kg/m3]	refractive index, [4]	viscosity, [3] [mPa·s]
293.15 K, x2 = 0	863.13 ± 0.39	1.4916 ± 0.0007	0.855 ± 0.008
293.15 K, x2 = 0.1216	876.73 ± 0.4	1.4944 ± 0.0007	0.857 ± 0.008
293.15 K, x2 = 0.2422	890.73 ± 0.4	1.4972 ± 0.0007	0.862 ± 0.008
293.15 K, x2 = 0.3455	903.18 ± 0.4	1.4996 ± 0.0007	0.874 ± 0.008
293.15 K, x2 = 0.4531	916.62 ± 0.41	1.5023 ± 0.0007	0.892 ± 0.008
293.15 K, x2 = 0.5658	931.23 ± 0.42	1.5051 ± 0.0007	0.915 ± 0.008
293.15 K, x2 = 0.6574	943.52 ± 0.42	1.5076 ± 0.0007	0.94 ± 0.009
293.15 K, x2 = 0.7486	956.19 ± 0.43	1.5101 ± 0.0007	0.971 ± 0.009
293.15 K, x2 = 0.8349	968.57 ± 0.43	1.5126 ± 0.0007	1.005 ± 0.009
293.15 K, x2 = 0.916	980.65 ± 0.44	1.515 ± 0.0007	1.042 ± 0.009
303.15 K, x2 = 0	854.71 ± 0.39	1.4858 ± 0.0007	0.744 ± 0.007
303.15 K, x2 = 0.1216	868.36 ± 0.39	1.4886 ± 0.0007	0.748 ± 0.007
303.15 K, x2 = 0.2422	882.36 ± 0.4	1.4914 ± 0.0007	0.752 ± 0.007
303.15 K, x2 = 0.3455	894.78 ± 0.4	1.4939 ± 0.0007	0.758 ± 0.007
303.15 K, x2 = 0.4531	908.15 ± 0.41	1.4966 ± 0.0007	0.77 ± 0.007
303.15 K, x2 = 0.5658	922.67 ± 0.41	1.4995 ± 0.0007	0.79 ± 0.007
303.15 K, x2 = 0.6574	934.9 ± 0.42	1.5019 ± 0.0007	0.812 ± 0.007
303.15 K, x2 = 0.7486	947.46 ± 0.42	1.5045 ± 0.0007	0.84 ± 0.008
303.15 K, x2 = 0.8349	959.71 ± 0.43	1.507 ± 0.0007	0.87 ± 0.008
303.15 K, x2 = 0.916	971.62 ± 0.43	1.5095 ± 0.0007	0.899 ± 0.008

Cc1ccccc1 [toluene]
Conditions	mass density, [1] [kg/m3]	refractive index, [2]	viscosity, [1] [mPa·s]
293.15 K	866.88 ± 0.29	1.4962 ± 0.0006	0.588 ± 0.005
303.15 K	857.46 ± 0.29	1.4914 ± 0.0006	0.523 ± 0.005

Cc1ccccc1 [toluene] + COc1ccccc1
x2 = 0
Conditions	mass density, [3] [kg/m3]	refractive index, [4]	viscosity, [3] [mPa·s]
293.15 K	866.88 ± 0.29	1.4962 ± 0.0006	0.588 ± 0.005
303.15 K	857.46 ± 0.29	1.4914 ± 0.0006	0.523 ± 0.005
